What was measured:
[1] = tested on: eutopic E-MSCs; assay: Matrigel transwell invasion assay, eutopic E-MSCs; assay type: cell-based, human; settings: 100 nM, 48 h, vs untreated
Procedure: FIG. 4: Quinagolide effect on EMSCs invasion. A and B: Representative micrographs (A) and quantification (B) of quinagolide effect (100 nM) on eutopic and ectopic (both ovarian and peritoneal) EMSCs invasion (original magnification: ×100). C: Concentration response effect of quinagolide treated ectopic EMSCs invasion. D and E: Quantification (D) and representative micrographs (E) (original magnification: ×100) of invasion assays performed on ectopic EMSCs (both ovarian and peritoneal), treated with 100 nM quinagolide (Q100 nM), 5 μM spiperone(S) or a combination of quinagolide and spiperone (S+Q100 nM). All invasion data are represented as mean±SD of at least three independent experiments, performed on different EMSC lines, and normalized to untreated cells (CTL). One-way ANova was performed: *=p<0.05 and **=p<0.001 vs CTL. Quinagolide powder (provided by Ferring Pharmaceuticals) was stored at 4° C. and resuspended in dimethylsulphoxide (DMSO) to a stock solution of 1 mM immediately before use. Spiperone powder (Sigma-Aldrich) was resuspended in water to a stock concentration of 1 mM and stored at −20° C. […] At least five pictures per transwell were acquired (original magnification: 100×), and the percentage of transwell area covered by invaded EMSCs was quantitatively measured by ImageJ software.

[2] = tested on: eutopic E-MSCs; assay: Endothelial differentiation (CD31) of eutopic E-MSCs in co-culture with HUVECs; assay type: cell-based, human; settings: 100 nM, 24-h treatment, 48 h co-culture with HUVECs
[3] = tested on: experimentally induced endometriosis; settings: Akyol et al., 2016; cited from earlier work

SMILES: CCCN1C[C@@H](NS(=O)(=O)N(CC)CC)C[C@@H]2Cc3c(O)cccc3C[C@H]21 [quinagolide, N,N-diethyl-N′-[(3S,4aS,10aR)-6-hydroxy-1-propyl-1,2,3,4,4a,5,10,10a-octahydrobenzo[g]quinolin-3-yl]sulfamide]
- invasion of eutopic E-MSC lines [1]: significantly reduced
- percentage of CD31 expressing E-MSCs after co-culture [2]: no significant alteration
- outcome in experimentally induced endometriosis rat model [3]: successfully tested
